Laboratory results as given in ChEMBL document CHEMBL3352173, “Optimization of pyrrolamide topoisomerase II inhibitors toward identification of an antibacterial clinical candidate (AZD5099)” (J Med Chem, 2014).
Values after ≈ are worked out from the molar mass of the structure shown.

Key:
Staphylococcus aureus [1] = test: Ratio of MIC for 2 times drug resistance selected Staphylococcus aureus ARC2398-1F to MIC for Staphylococcus aureus ARC2398; format: functional
Escherichia coli [2] = test: Antimicrobial activity against wild-type Escherichia coli Eco523 by broth microdilution/CLSI method; format: functional; conditions: Escherichia coli, Eco523; read-out: MIC
Staphylococcus aureus [3] = test: Antibacterial activity against methicillin-sensitive Staphylococcus aureus ARC516 infected in neutropenic CD1 mouse thigh model assessed as decrease in bacterial viable counts at 30 mg/kg, ip q24; format: functional; conditions: route intraperitoneal
Staphylococcus aureus [4] = test: Antimicrobial activity against 2 times drug resistance selected Staphylococcus aureus ARC1692-1F by broth microdilution/CLSI method; format: functional
[5] = Clearance in rat at 10 mg/kg, iv; format: ADME, organism-based; design: dose 10 mg/kg, route intravenous; conditions: in vivo
Staphylococcus aureus [6] = test: Antimicrobial activity against Staphylococcus aureus by broth microdilution/CLSI method; format: functional
Cytochrome P450 3A4 = Cytochrome P450 3A4 (Homo sapiens, UniProt P08684); test: Inhibition of human CYP3A4 at 50 uM; format: ADME
Enterococcus faecalis = test: Antimicrobial activity against vancomycin-resistant Enterococcus faecalis by broth microdilution/CLSI method; format: functional
Staphylococcus aureus [7] = test: Ratio of MIC for 2 times drug resistance selected Staphylococcus aureus ARC1692-1F to MIC for Staphylococcus aureus ARC1692; format: functional
Staphylococcus aureus [8] = test: Antimicrobial activity against 2 times drug resistance selected Staphylococcus aureus ARC516-1F by broth microdilution/CLSI method; format: functional
Staphylococcus aureus [9] = test: Antimicrobial activity against methicillin-sensitive Staphylococcus aureus by broth microdilution/CLSI method; format: functional; conditions: Staphylococcus aureus; read-out: MIC
Staphylococcus aureus [10] = test: Antimicrobial activity against 2 times drug resistance selected Staphylococcus aureus ARC2381-3F by broth microdilution/CLSI method; format: functional
[11] = Ratio of MIC for methicillin, quinolone-resistant Staphylococcus aureus to fraction unbound in human plasma; format: ADME
[12] = Bioavailability in CD1 mouse at 10 mg/kg, […]; format: ADME, organism-based; conditions: in vivo
[13] = molecular target: Voltage-gated inwardly rectifying potassium channel KCNH2 (Homo sapiens, UniProt Q12809); test: Inhibition of human ERG at 100 uM
Escherichia coli [14] = test: Antimicrobial activity against Escherichia coli tolC- by broth microdilution/CLSI method; format: functional; conditions: Escherichia coli; read-out: MIC
Staphylococcus aureus [15] = test: Antimicrobial activity against methicillin, quinolone-resistant Staphylococcus aureus by broth microdilution/CLSI method; format: functional; conditions: Staphylococcus aureus; read-out: MIC
[16] = molecular target: ATP-binding cassette sub-family C member 2 (Rattus norvegicus, UniProt Q63120); test: Stimulation of ATPase activity of rat Mrp2 assessed as inorganic phosphate
Cytochrome P450 2C9 = Cytochrome P450 2C9 (Homo sapiens, UniProt P11712); test: Inhibition of human CYP2C9 at 50 uM; format: ADME
Staphylococcus aureus [17] = test: Ratio of MIC for 2 times drug resistance selected Staphylococcus aureus ARC1692-2F to MIC for Staphylococcus aureus ARC1692; format: functional
[18] = Percentage unbound in rat plasma; format: ADME, cell-free
[19] = Clearance in TR-negative Wistar rat at 10 mg/kg, iv; format: ADME, organism-based; design: dose 10 mg/kg, route intravenous; conditions: in vivo
Staphylococcus aureus [20] = test: Antimicrobial activity against Staphylococcus aureus ARC2398 by broth microdilution/CLSI method; format: functional
[21] = Percentage unbound in human plasma; format: ADME, cell-free
Cytochrome P450 2C8 = molecular target: T1, Cytochrome P450 2C8 (Homo sapiens, UniProt P10632); test: Inhibition of human CYP2C8 at 50 uM; format: ADME
T1 sequence (P10632 whole entry): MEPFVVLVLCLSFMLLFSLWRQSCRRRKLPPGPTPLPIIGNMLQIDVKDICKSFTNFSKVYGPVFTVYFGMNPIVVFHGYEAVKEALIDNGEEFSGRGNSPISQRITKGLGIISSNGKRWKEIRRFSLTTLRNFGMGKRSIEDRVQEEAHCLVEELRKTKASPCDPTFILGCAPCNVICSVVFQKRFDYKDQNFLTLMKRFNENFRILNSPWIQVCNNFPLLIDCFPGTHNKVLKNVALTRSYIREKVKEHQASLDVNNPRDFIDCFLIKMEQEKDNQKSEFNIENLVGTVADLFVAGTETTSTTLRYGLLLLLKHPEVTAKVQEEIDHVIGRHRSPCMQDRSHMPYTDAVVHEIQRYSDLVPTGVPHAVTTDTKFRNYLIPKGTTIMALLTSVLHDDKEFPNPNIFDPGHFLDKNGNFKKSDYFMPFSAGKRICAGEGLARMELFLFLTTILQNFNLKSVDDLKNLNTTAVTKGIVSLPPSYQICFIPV

ATP-binding cassette sub-family C member 2, sequence (Q63120 whole entry): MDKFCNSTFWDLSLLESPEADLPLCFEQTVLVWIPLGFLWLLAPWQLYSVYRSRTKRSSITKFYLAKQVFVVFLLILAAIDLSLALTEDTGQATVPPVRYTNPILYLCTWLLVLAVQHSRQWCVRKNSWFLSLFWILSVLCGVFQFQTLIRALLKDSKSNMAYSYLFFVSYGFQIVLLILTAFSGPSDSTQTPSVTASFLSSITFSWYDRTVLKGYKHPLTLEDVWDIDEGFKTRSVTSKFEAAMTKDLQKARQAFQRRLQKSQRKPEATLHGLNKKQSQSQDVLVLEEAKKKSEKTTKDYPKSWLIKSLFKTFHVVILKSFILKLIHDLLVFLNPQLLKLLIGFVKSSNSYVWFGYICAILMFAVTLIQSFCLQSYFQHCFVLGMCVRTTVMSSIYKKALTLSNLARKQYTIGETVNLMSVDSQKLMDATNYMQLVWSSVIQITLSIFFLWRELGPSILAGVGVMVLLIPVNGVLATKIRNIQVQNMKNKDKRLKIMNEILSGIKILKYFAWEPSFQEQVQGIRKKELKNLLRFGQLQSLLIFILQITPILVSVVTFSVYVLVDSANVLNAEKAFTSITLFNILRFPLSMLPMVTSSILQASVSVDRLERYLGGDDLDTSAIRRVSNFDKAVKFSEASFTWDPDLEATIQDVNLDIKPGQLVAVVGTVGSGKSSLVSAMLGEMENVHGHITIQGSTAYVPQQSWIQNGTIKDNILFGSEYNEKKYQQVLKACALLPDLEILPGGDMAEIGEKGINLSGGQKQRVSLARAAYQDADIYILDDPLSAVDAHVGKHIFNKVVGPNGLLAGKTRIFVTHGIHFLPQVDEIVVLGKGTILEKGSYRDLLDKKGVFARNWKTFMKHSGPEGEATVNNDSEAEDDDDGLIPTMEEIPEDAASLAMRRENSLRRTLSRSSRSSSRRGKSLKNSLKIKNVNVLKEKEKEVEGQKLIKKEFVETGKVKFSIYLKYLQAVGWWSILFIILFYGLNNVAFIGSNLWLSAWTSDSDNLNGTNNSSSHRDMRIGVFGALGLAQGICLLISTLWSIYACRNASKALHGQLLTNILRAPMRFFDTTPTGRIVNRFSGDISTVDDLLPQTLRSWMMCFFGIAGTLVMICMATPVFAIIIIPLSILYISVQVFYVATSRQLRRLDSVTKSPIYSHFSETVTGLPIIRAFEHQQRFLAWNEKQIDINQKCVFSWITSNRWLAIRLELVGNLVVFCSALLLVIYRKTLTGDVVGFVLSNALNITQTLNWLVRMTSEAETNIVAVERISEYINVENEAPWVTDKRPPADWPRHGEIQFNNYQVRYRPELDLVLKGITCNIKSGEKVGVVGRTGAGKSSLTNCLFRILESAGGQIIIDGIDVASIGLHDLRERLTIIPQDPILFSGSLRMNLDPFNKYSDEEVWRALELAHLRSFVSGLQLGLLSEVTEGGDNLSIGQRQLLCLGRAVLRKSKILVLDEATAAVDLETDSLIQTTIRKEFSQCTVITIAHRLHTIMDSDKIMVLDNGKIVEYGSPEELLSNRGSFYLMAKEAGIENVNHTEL
Voltage-gated inwardly rectifying potassium channel KCNH2, sequence (Q12809 whole entry): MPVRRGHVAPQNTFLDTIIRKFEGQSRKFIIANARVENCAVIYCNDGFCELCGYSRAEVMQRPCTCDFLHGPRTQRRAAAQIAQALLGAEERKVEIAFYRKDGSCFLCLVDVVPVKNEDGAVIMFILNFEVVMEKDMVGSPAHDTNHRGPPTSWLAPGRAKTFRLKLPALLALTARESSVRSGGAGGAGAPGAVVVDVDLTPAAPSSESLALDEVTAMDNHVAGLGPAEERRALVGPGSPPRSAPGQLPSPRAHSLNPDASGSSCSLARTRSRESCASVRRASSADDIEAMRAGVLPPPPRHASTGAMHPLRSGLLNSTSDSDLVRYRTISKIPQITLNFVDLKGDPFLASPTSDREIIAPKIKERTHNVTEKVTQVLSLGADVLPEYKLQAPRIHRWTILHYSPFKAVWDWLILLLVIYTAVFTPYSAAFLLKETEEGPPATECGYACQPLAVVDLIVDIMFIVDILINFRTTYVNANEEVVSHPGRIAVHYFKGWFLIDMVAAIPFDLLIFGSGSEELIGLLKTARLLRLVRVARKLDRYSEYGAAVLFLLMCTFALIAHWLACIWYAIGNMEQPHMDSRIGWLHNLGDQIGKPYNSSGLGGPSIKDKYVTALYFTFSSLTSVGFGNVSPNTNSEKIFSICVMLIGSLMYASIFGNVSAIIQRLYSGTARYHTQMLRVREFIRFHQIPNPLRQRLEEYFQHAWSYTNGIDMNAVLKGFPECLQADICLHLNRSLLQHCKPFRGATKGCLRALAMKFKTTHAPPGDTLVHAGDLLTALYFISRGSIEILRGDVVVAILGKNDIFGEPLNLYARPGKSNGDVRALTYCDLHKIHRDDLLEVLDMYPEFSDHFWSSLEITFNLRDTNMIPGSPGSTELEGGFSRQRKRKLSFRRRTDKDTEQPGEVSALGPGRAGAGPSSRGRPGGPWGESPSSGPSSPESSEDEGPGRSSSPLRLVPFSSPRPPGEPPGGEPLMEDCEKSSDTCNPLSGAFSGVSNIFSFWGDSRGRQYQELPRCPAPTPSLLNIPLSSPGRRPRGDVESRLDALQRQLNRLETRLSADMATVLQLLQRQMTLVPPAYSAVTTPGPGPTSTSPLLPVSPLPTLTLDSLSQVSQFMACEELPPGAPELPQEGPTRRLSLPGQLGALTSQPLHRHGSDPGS
Cytochrome P450 2C9, sequence (P11712 whole entry): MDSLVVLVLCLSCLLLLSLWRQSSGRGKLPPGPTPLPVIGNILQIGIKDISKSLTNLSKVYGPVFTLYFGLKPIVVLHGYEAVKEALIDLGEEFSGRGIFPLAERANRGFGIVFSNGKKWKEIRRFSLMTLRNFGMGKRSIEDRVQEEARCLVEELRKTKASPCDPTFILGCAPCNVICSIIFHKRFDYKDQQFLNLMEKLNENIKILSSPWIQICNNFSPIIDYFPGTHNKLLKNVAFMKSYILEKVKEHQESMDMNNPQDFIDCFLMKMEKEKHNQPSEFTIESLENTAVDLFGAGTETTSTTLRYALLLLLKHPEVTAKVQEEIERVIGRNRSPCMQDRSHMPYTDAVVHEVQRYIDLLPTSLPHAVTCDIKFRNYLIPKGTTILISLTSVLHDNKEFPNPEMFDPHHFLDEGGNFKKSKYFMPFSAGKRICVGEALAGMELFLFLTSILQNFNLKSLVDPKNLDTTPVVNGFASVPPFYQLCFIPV
Cytochrome P450 3A4, sequence (P08684 whole entry): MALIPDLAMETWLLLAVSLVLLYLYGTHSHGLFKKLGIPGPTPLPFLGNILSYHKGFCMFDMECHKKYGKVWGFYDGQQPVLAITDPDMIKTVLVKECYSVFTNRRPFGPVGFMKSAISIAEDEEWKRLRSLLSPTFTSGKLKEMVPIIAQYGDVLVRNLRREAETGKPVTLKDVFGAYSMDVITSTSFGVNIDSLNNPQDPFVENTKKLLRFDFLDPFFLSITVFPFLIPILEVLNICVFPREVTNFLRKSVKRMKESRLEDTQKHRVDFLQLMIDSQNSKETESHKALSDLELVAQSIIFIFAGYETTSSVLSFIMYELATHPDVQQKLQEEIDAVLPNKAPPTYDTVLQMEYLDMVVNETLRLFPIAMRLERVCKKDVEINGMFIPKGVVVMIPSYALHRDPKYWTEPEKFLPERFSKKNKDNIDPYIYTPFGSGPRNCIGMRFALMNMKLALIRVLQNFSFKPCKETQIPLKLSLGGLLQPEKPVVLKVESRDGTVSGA

COC[C@H](C)NC(=O)c1nc(N2CC[C@@H](NC(=O)c3[nH]c(C)c(Cl)c3Cl)[C@@H](OC)C2)sc1C(=O)O [AZD-5099]
Ratio (Staphylococcus aureus [1]): 16
MIC (Escherichia coli [2]): 24 µg/mL (≈ 43.8 µM)
deltalog10CFU (Staphylococcus aureus [3]): 1.51
MIC (Staphylococcus aureus [4]): 0.5 µg/mL (≈ 0.912 µM)
clearance [5]: 14 mL/min/kg
MIC90 (Staphylococcus aureus [6]): 0.06 µg/mL (≈ 0.109 µM)
inhibition (INH) (Cytochrome P450 3A4): Not Active
MIC90 (Enterococcus faecalis): 0.015 µg/mL (≈ 0.0273 µM)
Ratio (Staphylococcus aureus [7]): 8
MIC (Staphylococcus aureus [8]): 0.25 µg/mL (≈ 0.456 µM)
MIC (Staphylococcus aureus [9]): 0.036 µg/mL (≈ 0.0656 µM)
MIC (Staphylococcus aureus [10]): 0.13 µg/mL (≈ 0.237 µM)
Ratio [11]: 2.3
bioavailability [12]: 100%
inhibition (INH) [13]: Not Active
MIC (Escherichia coli [14]): 0.94 µg/mL (≈ 1.71 µM)
MIC (Staphylococcus aureus [15]): 0.057 µg/mL (≈ 0.104 µM)
EC50 [16]: > 200 µM
inhibition (INH) (Cytochrome P450 2C9): Not Active
Ratio (Staphylococcus aureus [17]): 8
fraction unbound [18]: 0.034
clearance [19]: 2.1 mL/min/kg
MIC (Staphylococcus aureus [20]): 0.03 µg/mL (≈ 0.0547 µM)
fraction unbound [21]: 0.025
inhibition (INH) (Cytochrome P450 2C8): Not Active
